Test results from patent publication US20240316017A1, “NOVEL PYRIDINE DERIVATIVE COMPOUND AS RON INHIBITOR” (LG CHEM, LTD., priority 2021, published 2024).

Columns and labels:
RON = RON (Homo sapiens, UniProt Q04912); test: Evaluation of inhibitory activity against RON (TR-FRET kinase assay); type: biochemical; settings: RON protein, ULight-labeled Poly GT substrate
Protocol: In order to measure the inhibitory activity of each of the compounds of Examples against RON, the IC50 of each of the compounds was measured using Time-resolved fluorescence energy transfer (TR-FRET).
(§1) Specifically, the compound was prepared to a concentration of 1 mM in 100% DMSO and was diluted 10 times in a stepwise manner through 3-fold dilution. The compound (2 ul) diluted in a stepwise manner was added to a 96-well-plate containing 48 ul of a 1× kinase reaction buffer (50 mM HEPES (pH 7.4), 0.01% Tween-20, 5 mM DTT, 0.5 mM Na3VO4, 2 mM EGTA, 10 mM MgCl2).
The RON protein was diluted to a concentration of 49.3 nM in a RON storage buffer (50 mM Tris-HCl (pH 7.5), 150 mM NaCl, 0.5 mM EDTA, 0.02% Triton X-100), and then diluted again to a concentration of 0.4 nM in a 1×kinase reaction buffer. As a substrate cocktail, a RON-specific substrate mixed solution (40 uM ULight-labeled Poly GT, 100 nM ATP) was prepared at a concentration 2 times the final reaction concentration.
(§2) Thereafter, a 384-well-plate was prepared, and 2.5 μl of each of the diluted compounds of Examples was added to a corresponding well of experimental group wells, and 2.5 μl of a 4% DMSO solution was dispensed into high control wells and low control wells.
(§3) Thereafter, 2.5 μL of 0.4 nM RON was dispensed into each of the high control wells and the experimental group wells, and 2.5 μL of the 1× kinase reaction buffer was added to the low control wells, and all the wells were centrifuged at room temperature for 40 seconds at 1,000 RPM, and then incubated at room temperature for 20-30 minutes. Then, 5 uL of the substrate cocktail (2×) was dispensed into each well, and all the wells were centrifuged at room temperature for 40 seconds at 1,000 RPM, and then incubated at room temperature for 60 minutes. Thereafter, 5 uL of 30 mM EDTA was added to each well to terminate the reaction, and all the wells were then incubated again at room temperature for 5 minutes. Thereafter, 5 uL of a 4× phosphotyrosine antibody (Perkin Elmer) containing europium was added to each well, and all the wells were then incubated at room temperature for 60 minutes. After the incubation, the 384-well-plate was read with the Vison plate reader. In this case, the excitation wavelength was 340 nm, and the emission wavelength was 620 nm and 665 nm. The IC50 value of each compound of Examples was derived using the GraphPd Prism7 program.

cMET = cMET (Homo sapiens, UniProt P08581); test: Evaluation of inhibitory activity against MET (TR-FRET kinase assay); type: biochemical; settings: cMET protein, TK peptide substrate
cMET, sequence (P08581 25-1390): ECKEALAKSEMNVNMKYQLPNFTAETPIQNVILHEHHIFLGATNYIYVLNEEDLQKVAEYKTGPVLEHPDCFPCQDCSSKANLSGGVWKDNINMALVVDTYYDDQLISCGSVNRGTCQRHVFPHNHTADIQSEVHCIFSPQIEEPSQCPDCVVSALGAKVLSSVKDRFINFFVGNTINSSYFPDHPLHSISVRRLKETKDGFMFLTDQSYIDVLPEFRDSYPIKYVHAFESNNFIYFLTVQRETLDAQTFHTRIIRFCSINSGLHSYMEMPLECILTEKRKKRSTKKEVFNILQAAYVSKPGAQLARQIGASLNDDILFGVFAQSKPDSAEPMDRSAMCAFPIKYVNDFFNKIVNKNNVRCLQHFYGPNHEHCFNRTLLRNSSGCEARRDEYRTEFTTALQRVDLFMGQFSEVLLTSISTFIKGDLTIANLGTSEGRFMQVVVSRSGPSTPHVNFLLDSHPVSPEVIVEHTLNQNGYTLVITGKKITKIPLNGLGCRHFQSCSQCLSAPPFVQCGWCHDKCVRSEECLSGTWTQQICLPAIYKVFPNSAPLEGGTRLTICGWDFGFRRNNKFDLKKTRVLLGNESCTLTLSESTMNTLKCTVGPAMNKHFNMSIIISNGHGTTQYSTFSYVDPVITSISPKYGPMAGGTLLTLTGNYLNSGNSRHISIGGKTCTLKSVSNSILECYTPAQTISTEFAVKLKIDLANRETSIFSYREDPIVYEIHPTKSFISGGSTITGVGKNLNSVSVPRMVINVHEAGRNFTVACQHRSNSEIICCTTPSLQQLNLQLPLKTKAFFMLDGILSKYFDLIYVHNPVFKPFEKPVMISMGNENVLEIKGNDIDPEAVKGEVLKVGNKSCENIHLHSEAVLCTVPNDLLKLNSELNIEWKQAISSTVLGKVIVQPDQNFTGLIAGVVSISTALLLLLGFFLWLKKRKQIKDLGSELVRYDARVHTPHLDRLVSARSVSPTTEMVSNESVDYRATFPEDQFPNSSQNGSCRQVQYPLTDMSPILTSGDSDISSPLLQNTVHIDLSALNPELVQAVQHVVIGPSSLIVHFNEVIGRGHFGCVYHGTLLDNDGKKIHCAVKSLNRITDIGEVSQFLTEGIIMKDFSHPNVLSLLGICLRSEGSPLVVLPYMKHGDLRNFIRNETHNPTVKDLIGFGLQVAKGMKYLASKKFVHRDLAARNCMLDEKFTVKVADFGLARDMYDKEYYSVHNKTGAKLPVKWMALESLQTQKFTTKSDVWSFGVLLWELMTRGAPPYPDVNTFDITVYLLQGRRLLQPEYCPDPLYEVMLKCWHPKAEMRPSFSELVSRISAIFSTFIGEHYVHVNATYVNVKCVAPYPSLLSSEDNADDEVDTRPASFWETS
Protocol: In addition, in order to measure the enzyme activity inhibition for cMET, the evaluation was performed in the same manner as the enzyme activity inhibition measurement experiment for RON.
as §1, with “7.4), 0.05% BSA, 0.005%” for “7.4), 0.01%”, “Tween-20, 1” for “Tween-20, 5”, “mM MnCl2, 20” for “mM Na3VO4, 2 mM EGTA, 10”
The cMET protein was diluted to a concentration of 263 nM in a cMET storage buffer (50 mM Tris-HCl (pH 7.5), 150 mM NaCl, 0.05% Brij35, 1 mM DTT, 10% Glycerol), and then diluted again to a concentration of 2 nM in a 1× kinase reaction buffer. As a substrate cocktail, a MET-specific substrate mixed solution (5 uM TK peptide, 10 mM ATP) was prepared at a concentration 2 times the final reaction concentration.
as §2
as §3, with “of 2” for “of 0.4”, “nM cMET” for “nM RON”, “the 1×kinase” for “the 1× kinase”, “of 90” for “of 30”

RON, sequence (Q04912 25-1400, species assumed): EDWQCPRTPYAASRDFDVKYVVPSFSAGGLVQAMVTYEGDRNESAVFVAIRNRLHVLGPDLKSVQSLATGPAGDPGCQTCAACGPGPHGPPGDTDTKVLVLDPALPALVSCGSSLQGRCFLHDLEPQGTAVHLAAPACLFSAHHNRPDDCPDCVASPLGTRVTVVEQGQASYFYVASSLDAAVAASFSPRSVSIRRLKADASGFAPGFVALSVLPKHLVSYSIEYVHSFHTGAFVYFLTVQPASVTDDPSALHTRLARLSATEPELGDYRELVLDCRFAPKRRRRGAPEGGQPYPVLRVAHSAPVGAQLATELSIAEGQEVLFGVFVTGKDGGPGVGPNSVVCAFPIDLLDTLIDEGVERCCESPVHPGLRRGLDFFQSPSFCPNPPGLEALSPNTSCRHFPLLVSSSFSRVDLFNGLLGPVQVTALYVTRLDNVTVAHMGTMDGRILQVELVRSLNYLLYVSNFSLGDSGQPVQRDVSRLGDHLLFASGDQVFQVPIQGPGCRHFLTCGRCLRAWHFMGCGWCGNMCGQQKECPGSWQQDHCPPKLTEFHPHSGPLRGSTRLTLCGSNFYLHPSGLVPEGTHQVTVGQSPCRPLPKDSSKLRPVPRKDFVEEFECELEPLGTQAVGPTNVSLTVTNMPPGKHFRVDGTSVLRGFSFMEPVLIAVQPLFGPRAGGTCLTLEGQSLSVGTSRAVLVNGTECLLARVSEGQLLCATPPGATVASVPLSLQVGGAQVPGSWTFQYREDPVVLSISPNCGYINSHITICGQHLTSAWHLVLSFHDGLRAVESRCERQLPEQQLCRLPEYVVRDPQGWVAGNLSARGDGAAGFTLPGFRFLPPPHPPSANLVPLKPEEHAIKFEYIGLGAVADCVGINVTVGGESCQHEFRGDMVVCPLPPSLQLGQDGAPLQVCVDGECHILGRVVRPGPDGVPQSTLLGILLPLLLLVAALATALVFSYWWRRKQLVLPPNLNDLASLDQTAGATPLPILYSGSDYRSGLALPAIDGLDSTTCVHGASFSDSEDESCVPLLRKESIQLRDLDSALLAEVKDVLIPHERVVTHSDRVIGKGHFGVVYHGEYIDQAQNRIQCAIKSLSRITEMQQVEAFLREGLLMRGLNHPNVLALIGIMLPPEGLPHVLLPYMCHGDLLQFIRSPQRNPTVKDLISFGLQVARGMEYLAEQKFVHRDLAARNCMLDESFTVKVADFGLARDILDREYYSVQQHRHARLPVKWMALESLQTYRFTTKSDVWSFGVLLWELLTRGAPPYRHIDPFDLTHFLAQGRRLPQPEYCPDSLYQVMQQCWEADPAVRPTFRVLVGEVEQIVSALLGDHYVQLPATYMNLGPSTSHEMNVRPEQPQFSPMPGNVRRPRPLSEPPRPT

| IC50 (RON) | IC50 (cMET) | SMILES |
| --- | --- | --- |
| > 5 µM | > 5 µM | Cc1ccc(-n2ncc(C(=O)Nc3ccc(Oc4ncnc(N)c4Cl)c(F)c3)c2C(F)(F)F)cc1 [Example 49] |
| 0.5 to 5 µM | > 5 µM | Nc1ncnc(Oc2ccc(NC(=O)c3cnn(C4CCCOC4)c3C(F)(F)F)cc2F)c1Cl (stereo not drawn) [Example 50] |
| 0.05 to 0.5 µM | > 5 µM | Nc1ncnc(Oc2ccc(NC(=O)c3cnn(C4CCCCC4)c3C(F)(F)F)cc2F)c1Cl [Example 51] |
| 0.05 to 0.5 µM | 0.5 to 5 µM | Nc1ncnc(Oc2ccc(NC(=O)c3cnn(-c4ccccc4F)c3C(F)(F)F)cc2F)c1Cl [Example 52, N-[4-(6-amino-5-chloro-pyrimidin-4-yl)oxy-3-fluorophenyl]-1-(2-fluorophenyl)-5-(trifluoromethyl)pyrazole-4-carboxamide] |
| 0.5 to 5 µM | > 5 µM | Nc1ncnc(Oc2ccc(NC(=O)c3ccn(-c4ccccc4)n3)cc2F)c1Cl [Example 53, N-[4-(6-amino-5-chloro-pyrimidin-4-yl)oxy-3-fluorophenyl]-1-phenyl-pyrazole-3-carboxamide] |
| > 5 µM | > 5 µM | Nc1ncnc(Oc2ccc(NC(=O)c3cn(-c4ccccc4)nn3)cc2F)c1Cl [Example 54, N-[4-(6-amino-5-chloro-pyrimidin-4-yl)oxy-3-fluorophenyl]-1-phenyl-triazole-4-carboxamide] |
| > 5 µM | > 5 µM | Cc1c(C(=O)Nc2ccc(Oc3ncnc(N)c3Cl)c(F)c2)nnn1-c1ccccc1 [Example 55, N-[4-(6-amino-5-chloro-pyrimidin-4-yl)oxy-3-fluorophenyl]-5-methyl-1-phenyl-triazole-4-carboxamide] |
| 0.05 to 0.5 µM | > 5 µM | Cc1c(C(=O)Nc2ccc(Oc3ncnc(N)c3Cl)c(F)c2)nnn1-c1ccccc1F [Example 56, N-[4-(6-amino-5-chloro-pyrimidin-4-yl)oxy-3-fluorophenyl]-1-(2-fluorophenyl)-5-methyl-triazole-4-carboxamide] |
| > 5 µM | > 5 µM | Nc1ncnc(Oc2ccc(NC(=O)c3cnn(-c4ccccc4)c3)cc2F)c1Cl [Example 57, N-(4-((6-amino-5-chloro-pyrimidin-4-yl)oxy)-3-fluorophenyl)-1-phenyl-1H-pyrazole-4-carboxamide] |
| 0.5 to 5 µM | > 5 µM | CC(C)(C)n1ncc(C(=O)Nc2ccc(Oc3ncnc(N)c3Cl)c(F)c2)c1C(F)(F)F [Example 58, N-[4-(6-amino-5-chloro-pyrimidin-4-yl)oxy-3-fluorophenyl]-1-tert-butyl-5-(trifluoromethyl)pyrazole-4-carboxamide] |
| 0.05 to 0.5 µM | 0.5 to 5 µM | Nc1ncnc(Oc2ccc(NC(=O)c3cnn(-c4ccccc4)c3-c3ccccc3)cc2F)c1Cl [Example 59, N-[4-(6-amino-5-chloro-pyrimidin-4-yl)oxy-3-fluorophenyl]-1,5-diphenyl-pyrazole-4-carboxamide] |
| 0.5 to 5 µM | > 5 µM | CN1CCCC(n2ncc(C(=O)Nc3ccc(Oc4ncnc(N)c4Cl)c(F)c3)c2C(F)(F)F)C1 (stereo not drawn) [Example 60, N-[4-(6-amino-5-chloro-pyrimidin-4-yl)oxy-3-fluorophenyl]-1-(1-methyl-3-piperidyl)-5-(trifluoromethyl)pyrazole-4-carboxamide] |
| 0.5 to 5 µM | > 5 µM | Cc1nc(-c2ccccc2)sc1C(=O)Nc1ccc(Oc2ncnc(N)c2Cl)c(F)c1 [Example 61, N-[4-(6-amino-5-chloro-pyrimidin-4-yl)oxy-3-fluorophenyl]-4-methyl-2-phenyl-thiazole-5-carboxamide] |
| > 5 µM | > 5 µM | O=C(Nc1ccc(Oc2ncnc(NC3CC3)c2Cl)c(F)c1)c1cnn(-c2ccccc2)c1C(F)(F)F [Example 62, N-(4-((5-chloro-6-(cyclopropylamino)pyrimidin-4-yl)oxy)-3-fluorophenyl)-1-phenyl-5-(trifluoromethyl)-1H-pyrazole-4-carboxamide] |
| 0.05 to 0.5 µM | > 5 µM | Nc1ncnc(Oc2ccc(NC(=O)c3ncn(-c4ccccc4)c3C(F)(F)F)cc2F)c1Cl [Example 63, N-[4-(6-amino-5-chloro-pyrimidin-4-yl)oxy-3-fluorophenyl]-1-phenyl-5-(trifluoromethyl)imidazole-4-carboxamide] |
